Test results from PubChem BioAssay (NCI).
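Five concentrations, 48 hours, 96-well plates. Abbreviation: GI50, concentration required for 50% inhibition of growth. TGI denotes the concentration required for complete inhibition of growth.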

Experiments:
Assay in all cases: NCI-60 cell line screen, 48 h
786-0 renal = test system: 786-0 renal
A498 renal = test system: A498 renal
A549 NSCLC = test system: A549 NSCLC
ACHN renal = test system: ACHN renal
BT-549 breast = test system: BT-549 breast
CAKI-1 renal = test system: CAKI-1 renal
CCRF-CEM leukemia = test system: CCRF-CEM leukemia
COLO 205 colon = test system: COLO 205 colon
DU-145 prostate = test system: DU-145 prostate
EKVX NSCLC = test system: EKVX NSCLC
HCC-2998 colon = test system: HCC-2998 colon
HCT-116 colon = test system: HCT-116 colon
HCT-15 colon = test system: HCT-15 colon
HL-60(TB) leukemia = test system: HL-60(TB) leukemia
HOP-62 NSCLC = test system: HOP-62 NSCLC
HOP-92 NSCLC = test system: HOP-92 NSCLC
HS 578T breast = test system: HS 578T breast
HT29 colon = test system: HT29 colon
IGROV1 ovarian = test system: IGROV1 ovarian
K-562 leukemia = test system: K-562 leukemia
KM12 colon = test system: KM12 colon
LOX IMVI melanoma = test system: LOX IMVI melanoma
M14 melanoma = test system: M14 melanoma
MCF7 breast = test system: MCF7 breast
MDA-MB-231 breast = test system: MDA-MB-231 breast
MDA-MB-435 = test system: MDA-MB-435
MOLT-4 leukemia = test system: MOLT-4 leukemia
NCI-H226 lung = test system: NCI-H226 lung
NCI-H23 lung = test system: NCI-H23 lung
NCI-H460 lung = test system: NCI-H460 lung
NCI-H522 lung = test system: NCI-H522 lung
NCI/ADR-RES ovarian = test system: NCI/ADR-RES ovarian
OVCAR-3 ovarian = test system: OVCAR-3 ovarian
OVCAR-4 ovarian = test system: OVCAR-4 ovarian
OVCAR-5 ovarian = test system: OVCAR-5 ovarian
OVCAR-8 ovarian = test system: OVCAR-8 ovarian
PC-3 prostate = test system: PC-3 prostate
RPMI-8226 leukemia = test system: RPMI-8226 leukemia
RXF 393 renal = test system: RXF 393 renal
SF-268 CNS = test system: SF-268 CNS
SF-295 CNS = test system: SF-295 CNS
SK-MEL-2 melanoma = test system: SK-MEL-2 melanoma
SK-MEL-28 melanoma = test system: SK-MEL-28 melanoma
SK-MEL-5 melanoma = test system: SK-MEL-5 melanoma
SN12C renal = test system: SN12C renal
SNB-19 CNS = test system: SNB-19 CNS
SNB-75 CNS = test system: SNB-75 CNS
SR leukemia = test system: SR leukemia
SW-620 colon = test system: SW-620 colon
TK-10 renal = test system: TK-10 renal
U251 CNS = test system: U251 CNS
UACC-257 melanoma = test system: UACC-257 melanoma
UACC-62 melanoma = test system: UACC-62 melanoma
UO-31 renal = test system: UO-31 renal

Work on `Cc1cc(C)c(-c2cc(O)c(-c3c(C)cc(C)cc3C)cc2O)c(C)c1` yielded a GI50 (786-0 renal) of 6.49 µM, a TGI (786-0 renal) greater than 100 µM and a GI50 (A498 renal) of 2.58 µM. The TGI (A498 renal) was greater than 100 µM, the GI50 (A549 NSCLC) was 4.6 µM and the TGI (A549 NSCLC) was greater than 100 µM. It also gave a GI50 (ACHN renal) of 7.43 µM, a TGI (ACHN renal) greater than 100 µM and a GI50 (BT-549 breast) of 6.39 µM. It also gave a TGI (BT-549 breast) greater than 100 µM, a GI50 (CAKI-1 renal) of 4.23 µM and a TGI (CAKI-1 renal) greater than 100 µM. The GI50 (CCRF-CEM leukemia) was 4.1 µM, the TGI (CCRF-CEM leukemia) was greater than 100 µM and the GI50 (COLO 205 colon) was 2.27 µM. The TGI (COLO 205 colon) was 5.68 µM, the GI50 (DU-145 prostate) was 3.35 µM and the TGI (DU-145 prostate) was 15.2 µM. The GI50 (EKVX NSCLC) was 5.83 µM, the TGI (EKVX NSCLC) was greater than 100 µM and the GI50 (HCC-2998 colon) was 2.9 µM. The TGI (HCC-2998 colon) was greater than 100 µM, the GI50 (HCT-116 colon) was 3.51 µM and the TGI (HCT-116 colon) was greater than 100 µM. The GI50 (HCT-15 colon) was 3.73 µM, the TGI (HCT-15 colon) was greater than 100 µM and the GI50 (HL-60(TB) leukemia) was 3.21 µM. The TGI (HL-60(TB) leukemia) was greater than 100 µM, the GI50 (HOP-62 NSCLC) was 4.55 µM and the TGI (HOP-62 NSCLC) was greater than 100 µM. The GI50 (HOP-92 NSCLC) was 37.2 µM, the TGI (HOP-92 NSCLC) was greater than 100 µM and the GI50 (HS 578T breast) was 3.29 µM. For the same compound, the TGI (HS 578T breast) was greater than 100 µM, the GI50 (HT29 colon) was 3.18 µM and the TGI (HT29 colon) was 65.1 µM. For the same compound, the GI50 (IGROV1 ovarian) was 4.18 µM, the TGI (IGROV1 ovarian) was greater than 100 µM and the GI50 (K-562 leukemia) was 2.91 µM. For the same compound, the TGI (K-562 leukemia) was greater than 100 µM, the GI50 (KM12 colon) was 2.19 µM and the TGI (KM12 colon) was greater than 100 µM. It also gave a GI50 (LOX IMVI melanoma) of 4.39 µM, a TGI (LOX IMVI melanoma) greater than 100 µM and a GI50 (M14 melanoma) of 2.77 µM. The TGI (M14 melanoma) was greater than 100 µM, the GI50 (MCF7 breast) was 2.46 µM and the TGI (MCF7 breast) was greater than 100 µM. For the same compound, the GI50 (MDA-MB-231 breast) was 3.29 µM, the TGI (MDA-MB-231 breast) was 11.3 µM and the GI50 (MDA-MB-435) was 0.482 µM. The TGI (MDA-MB-435) was greater than 100 µM, the GI50 (MOLT-4 leukemia) was 6.93 µM and the TGI (MOLT-4 leukemia) was greater than 100 µM. The GI50 (NCI-H226 lung) was 38.7 µM, the TGI (NCI-H226 lung) was greater than 100 µM and the GI50 (NCI-H23 lung) was 4.05 µM. It also gave a TGI (NCI-H23 lung) greater than 100 µM, a GI50 (NCI-H460 lung) of 3.45 µM and a TGI (NCI-H460 lung) greater than 100 µM. The GI50 (NCI-H522 lung) was 1.74 µM, the TGI (NCI-H522 lung) was 4.46 µM and the GI50 (NCI/ADR-RES ovarian) was 4.33 µM. For the same compound, the TGI (NCI/ADR-RES ovarian) was greater than 100 µM, the GI50 (OVCAR-3 ovarian) was 2.05 µM and the TGI (OVCAR-3 ovarian) was 4.85 µM. The GI50 (OVCAR-4 ovarian) was 7.6 µM, the TGI (OVCAR-4 ovarian) was greater than 100 µM and the GI50 (OVCAR-5 ovarian) was 11.3 µM. For the same compound, the TGI (OVCAR-5 ovarian) was greater than 100 µM, the GI50 (OVCAR-8 ovarian) was 5.37 µM and the TGI (OVCAR-8 ovarian) was greater than 100 µM. The GI50 (PC-3 prostate) was 4.44 µM, the TGI (PC-3 prostate) was greater than 100 µM and the GI50 (RPMI-8226 leukemia) was 5.82 µM. The TGI (RPMI-8226 leukemia) was greater than 100 µM, the GI50 (RXF 393 renal) was 2.77 µM and the TGI (RXF 393 renal) was greater than 100 µM. It also gave a GI50 (SF-268 CNS) of 5.83 µM, a TGI (SF-268 CNS) greater than 100 µM and a GI50 (SF-295 CNS) of 2.68 µM. For the same compound, the TGI (SF-295 CNS) was greater than 100 µM, the GI50 (SK-MEL-2 melanoma) was 4.55 µM and the TGI (SK-MEL-2 melanoma) was greater than 100 µM. The GI50 (SK-MEL-28 melanoma) was 8.14 µM, the TGI (SK-MEL-28 melanoma) was greater than 100 µM and the GI50 (SK-MEL-5 melanoma) was 1.61 µM. The TGI (SK-MEL-5 melanoma) was 31.2 µM, the GI50 (SN12C renal) was 5.52 µM and the TGI (SN12C renal) was greater than 100 µM. For the same compound, the GI50 (SNB-19 CNS) was 3.58 µM, the TGI (SNB-19 CNS) was greater than 100 µM and the GI50 (SNB-75 CNS) was 2.87 µM. It also gave a TGI (SNB-75 CNS) greater than 100 µM, a GI50 (SR leukemia) of 2.43 µM and a TGI (SR leukemia) greater than 100 µM. It also gave a GI50 (SW-620 colon) of 3.17 µM, a TGI (SW-620 colon) greater than 100 µM and a GI50 (TK-10 renal) greater than 100 µM. It also gave a TGI (TK-10 renal) greater than 100 µM, a GI50 (U251 CNS) of 4.22 µM and a TGI (U251 CNS) greater than 100 µM. For the same compound, the GI50 (UACC-257 melanoma) was greater than 100 µM, the TGI (UACC-257 melanoma) was greater than 100 µM and the GI50 (UACC-62 melanoma) was 3.18 µM. For the same compound, the TGI (UACC-62 melanoma) was greater than 100 µM, the GI50 (UO-31 renal) was 9.7 µM and the TGI (UO-31 renal) was greater than 100 µM.
